Test results taken from patent US9486507B2, “Pro-coagulant compounds and methods of use thereof” (priority 2011, dated 2016).
pEC50: −log10 of the molar value.

Target: FIXa (Homo sapiens, UniProt P00740)
Assay: FXa generation assay with human FIXa
Assay type: biochemical
Design: purchased Haematologic Technologies
Settings: FXa generation assay using human FIXa; class symbols

Sequence of FIXa (P00740 47-191 limits assumed): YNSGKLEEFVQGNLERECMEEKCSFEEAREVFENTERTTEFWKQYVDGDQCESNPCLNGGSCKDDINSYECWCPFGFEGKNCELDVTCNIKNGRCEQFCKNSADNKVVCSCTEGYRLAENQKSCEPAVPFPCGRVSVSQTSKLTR
Sequence of FIXa (P00740 227-461 limits assumed): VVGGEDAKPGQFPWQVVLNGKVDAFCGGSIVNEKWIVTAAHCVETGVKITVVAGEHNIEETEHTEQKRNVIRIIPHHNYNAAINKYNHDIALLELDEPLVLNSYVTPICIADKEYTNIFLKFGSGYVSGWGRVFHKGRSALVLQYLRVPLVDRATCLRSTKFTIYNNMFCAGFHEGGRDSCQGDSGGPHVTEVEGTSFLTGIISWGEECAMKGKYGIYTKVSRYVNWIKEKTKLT

| Substance | Vmax | pEC50 |
| --- | --- | --- |
| APPGGKRMCLVSGCQLFPWSAS | (+) ((+)<1) |  |
| AQLRRKLTCLASYCWLFGFFSP | (++) ((++) 1-2) |  |
| AQTRVARCCQLF | (+) ((+)<1) |  |
| AVAINKVPCVASYCQLFESKIH | (+) ((+)<1) |  |
| AWPYHKPTCLASQCWQFLAQGS | (+) ((+)<1) |  |
| DAGPNKLRCLASYCQLFGGGHA | (+) ((+)<1) |  |
| DAKVAKLRCLGSQCWLLQYAPG | (++) ((++) 1-2) |  |
| DSRSAKRKCLASYCWLFGIGQA | (+) ((+)<1) |  |
| EQTCLASYCWLF | (+) ((+)<1) |  |
| ERYRLDMTCMASQCWQFPPAAG | (++) ((++) 1-2) |  |
| FGQPSRLTCLASYCWLFGNLVT | (++) ((++) 1-2) |  |
| FPIQHKLTCLSSDCWLFPSHSY | (+) ((+)<1) |  |
| GAQLDKETCLASYCQLFSTVRR | (+) ((+)<1) |  |
| GASSDKLTCRTRHCSMFQPLSV | (+) ((+)<1) |  |
| GCSSDKLTARTRHCSMFQPLSV | (+) ((+)<1) |  |
| GDSGRKLSCLGSYCWLSVQFMA | (++) ((++) 1-2) |  |
| GEGGGKLSCVAIQCGLFKGLGR | (+) ((+)<1) |  |
| GFGSRKLTSLASYGWLIQDRLP | (+) ((+)<1) |  |
| GGALQQLTCPASYCWLFPMEHS | (+) ((+)<1) |  |
| GIQGSEVACRASFCRLFEQGHV | (+) ((+)<1) |  |
| GSCRDQLTCLSSDRWQFFRRVS | (+) ((+)<1) |  |
| GVEDRQLTCLASSCWVFSRHSV | (++) ((++) 1-2) |  |

| Substance | Vmax | pEC50 |
| --- | --- | --- |
| HDSLDQLTCLASVCQLASMGAR | (+) ((+)<1) |  |
| HGLADRLTCLSSDCWLQPFGTS | (+) ((+)<1) |  |
| HLGSPKLTCGASQCWLLNHEVS | (+) ((+)<1) |  |
| HMQWGKLPCLASYCWLFWYGIG | (+++) ((+++)>2) |  |
| HQQRRKLTCLAGYCWLFVLGPS | (+++) ((+++)>2) |  |
| KEGFAQLPCLVCQGGLFSPRAI | (+) ((+)<1) |  |
| KGAYQKLTCLASYCLLFLLTAQ | (++) ((++) 1-2) |  |
| KGRCLTSHCWLF | (+) ((+)<1) |  |
| KKTCLASYCWLF | (++) ((++) 1-2) |  |
| KLKCLASYCWLF | (++++) ((++++)>3) | 6.00 to 6.30 |
| KLKCLSSECQLL | (+) ((+)<1) |  |
| KLSCQAGQCWVF | (+++) ((+++)>2) |  |
| KLTCKASYCWLF | (++++) ((++++)>3) |  |
| KLTCLASKCWLF | (+) ((+)<1) |  |
| KLTCLASQCWLF | (+++) ((+++)>2) |  |
| KLTCLASYCFLF | (++++) ((++++)>3) | 6.00 to 6.30 |
| KLTCLASYCLLF | (+++) ((+++)>2) | 6.00 to 6.30 |
| KLTCLASYCQLF | (++++) ((++++)>3) | 6.00 to 6.30 |
| KLTCLASYCQLV | (+++) ((+++)>2) |  |
| KLTCLASYCWIF | (+++) ((+++)>2) | 6.00 to 6.30 |
| KLTCLASYCWLK | (+) ((+)<1) |  |
| KLTCLASYCWYF | (+++) ((+++)>2) |  |

| Substance | Vmax | pEC50 |
| --- | --- | --- |
| KLTCLATYCWLF | (++) ((++) 1-2) |  |
| KLTCLGSYCWLF | (+++) ((+++)>2) |  |
| KLTCLKSYCWLF | (++) ((++) 1-2) |  |
| KLTCLSSYCWLF | (+++) ((+++)>2) |  |
| KLTCLVSYCWLF | (+++) ((+++)>2) | 6.00 to 6.30 |
| KLTCQASYCWLF | (++) ((++) 1-2) |  |
| KLTCRASYCQLF | (+++) ((+++)>2) |  |
| KRYVYRQMCLVSACWLLQLGYA | (++) ((++) 1-2) |  |
| LLHAQKLSCLASYCWVFDAEWD | (+) ((+)<1) |  |
| LLQIPNLTCLGSYCWLDNGVYA | (+) ((+)<1) |  |
| LQELTKLTCLARSGWLVCNPGY | (+) ((+)<1) |  |
| LRTQPKVTGLASCSGLVNCSRD | (+) ((+)<1) |  |
| LTWREKLACLASYCWLFLWGAP | (++) ((++) 1-2) |  |
| MAGMLKLTCFASYCGLFPLVSS | (++) ((++) 1-2) |  |
| MEGTRQPTCLASYCSPFQYVAP | (+) ((+)<1) |  |
| MLTCIASYCQLG | (+) ((+)<1) |  |
| NGGMQKPACLASQCWLFANPLP | (++) ((++) 1-2) |  |
| NLTGRASYGWLP | (+) ((+)<1) |  |
| NPTCQASYCQLF | (+) ((+)<1) |  |
| QAKMLKLTCLASYCWLFWVTRS | (+++) ((+++)>2) |  |
| QDGDGKLTCRASYCRRFLVGVH | (+) ((+)<1) |  |
| QDGVEKLTCLASYCWRFGDHGA | (+) ((+)<1) |  |

| Substance | Vmax | pEC50 |
| --- | --- | --- |
| QEQPAKLTCRGSYCWLFKRGDQ | (+) ((+)<1) |  |
| QGQARKLACLASYCWLFPSSAG | (+) ((+)<1) |  |
| QLPCLASYCGLF | (+) ((+)<1) |  |
| QLTCLASECGLS | (+) ((+)<1) |  |
| QLTCLASYCGGV | (+) ((+)<1) |  |
| QLTCLASYCWLF | (+) ((+)<1) |  |
| QQRQIKMSCLASYCWLFGSIPW | (++) ((++) 1-2) | 6.00 to 6.30 |
| QQTCQASQCQLF | (+) ((+)<1) |  |
| RFQTTQLTCLGSASCLFNLSVR | (+) ((+)<1) |  |
| RGRSAKLRCLASYCWLFFGVIL | (+++) ((+++)>2) |  |
| RGRSAKLRCLASYCWLFFTVIL | (+++) ((+++)>2) |  |
| RGRSAKLTCLASYCWLFFGVIL | (+++) ((+++)>2) |  |
| RGSVHQPTCLGGYCGRLHSSWV | (+) ((+)<1) |  |
| RHSNHNLTCQASYCWLLPAGLQ | (+) ((+)<1) |  |
| RLTCLASYCWLF | (+++) ((+++)>2) |  |
| RPGGGKVTCQASYCWPFLARAG | (+) ((+)<1) |  |
| RQLWNKLTCLASYCALIGLSGT | (++) ((++) 1-2) |  |
| RRCPGKLQALASYCWLFWTGIA | (+++) ((+++)>2) |  |
| RSFTSELTCLASSCRRFHHVPP | (+) ((+)<1) |  |
| RSQGRKLTCLASYCWLFLVVHR | (++) ((++) 1-2) |  |
| RSTVSQMRCLASYCWLFPALVS | (++) ((++) 1-2) |  |
| SCVKHELKCLSSDSRLFSAVQR | (+) ((+)<1) |  |

| Substance | Vmax | pEC50 |
| --- | --- | --- |
| SGFGMKLTCLASYCGLFQGEIG | (+) ((+)<1) |  |
| SGGSGKLTCLASYCWPFGSQVR | (+) ((+)<1) |  |
| SGRGGKLTCQASFCQLFGNGLS | (++) ((++) 1-2) |  |
| SISGQQLTCRASHCWLNLPWHS | (+) ((+)<1) |  |
| SKWEHQRGCLANNCWLFTLAPG | (+) ((+)<1) |  |
| SLADTQLTWLARQYWLSVSEGS | (+) ((+)<1) |  |
| SRQSDKPTCLAISCSLLTSNVR | (+) ((+)<1) |  |
| SYGRTKLTCLASSCWLFGQVHG | (+) ((+)<1) |  |
| TLDSKNLQCLGSSCWLFSSGLS | (+) ((+)<1) |  |
| TLLYQNRTCLASYCWLFDKRSV | (+) ((+)<1) |  |
| TLTCRASYCQLF | (+) ((+)<1) |  |
| VAHYGKVTCLASYCQPLPSVGA | (+) ((+)<1) |  |
| VARASKVECLASYCQLFVGGEV | (+) ((+)<1) |  |
| VDKGHQLRCQAGYCWLLGYNRE | (+) ((+)<1) |  |
| VGEHRKISCVASNCQLLRSGLA | (+) ((+)<1) |  |
| VQRSTQLTCLYGGCRLFGWNYH | (+) ((+)<1) |  |
| VSGTGKLTCLASYCWLFQLGSF | (++) ((++) 1-2) |  |
| VSGTGRLTCVASYCWMFQLGIF | (++) ((++) 1-2) |  |

Same assay, conditions: FXa generation assay using human FIXa; numeric bounds

| Substance | Vmax |
| --- | --- |
| EGRRDKLTCLASYCWLVGHGQH | >0.3 |
| GASGRRRTCVASYCLLFQSGLP | >0.1 |
| HYARVQLRCLDGYCWLLTKSRM | >2.5 |
| KKTCVASFCQMI | >4 |
| LRQRLAKTCVASYCWLFSLVAS | >1.5 |
| RCAQSRLPWLVSYCWLFSPYGM | >1.5 |
| RYQRARLTCLASYCGLLFSMSA | >0.5 |

Same assay, conditions: FXa generation assay, 10 nM hFIXa, 100 nM hFX; class symbols

| Substance | Vmax |
| --- | --- |
| PRIrTVGPGSrSASGKSTCLASYCWLFWTGIA [Compound 24] | (++++) ((++++)>3) |
